Measurements published in PMC7413516, “Antidepressant-like activity and safety profile evaluation of 1H-imidazo[2,1-f]purine-2,4(3H,8H)-dione derivatives as 5-HT1A receptor partial agonists” (PLoS ONE, 2020).
Where “and” joins values, the source holds several entries; their conditions need not be identical. Equal values may be shown once.

Assays:
[1] = tested on: adrenergic α1 receptors (α1R); assay: Pressor response to methoxamine in anesthetized normotensive rats (adrenolytic activity); assay type: in vivo, Wistar rats; conditions: 10 mg/kg; for mean reduction of blood pressure vs. methoxamine alone: 30 min prior to methoxamine 150 μg/kg
Method: In a separate series of experiments on anesthetized normotensive rats, the effect of studied compounds on the pressor response to methoxamine (Sigma Aldrich) (150 μg/kg) was investigated. Pressor responses to methoxamine injected intravenously were measured before and 30 min after the administration of the tested compound. The amplitudes of the pressure values were measured in 4 independent experiments.

[2] = design: method as in PMID 27353547; conditions: ref [8]; cited from earlier work
[3] = molecular target: T1, human serotonin 5-HT1A receptor (Homo sapiens, UniProt P08908); assay: ERK1/2 phosphorylation (SureFire Alpha LISA, CHO-K1 5HT1AR cells); conditions: for Emax: CHO-K1, read-out: Emax (%) ± SEM, agonist mode; for decreased efficacy as compared to 5-HT / increased potency as compared to 5-HT: p-ERK1/2
T1 sequence (P08908 1-422): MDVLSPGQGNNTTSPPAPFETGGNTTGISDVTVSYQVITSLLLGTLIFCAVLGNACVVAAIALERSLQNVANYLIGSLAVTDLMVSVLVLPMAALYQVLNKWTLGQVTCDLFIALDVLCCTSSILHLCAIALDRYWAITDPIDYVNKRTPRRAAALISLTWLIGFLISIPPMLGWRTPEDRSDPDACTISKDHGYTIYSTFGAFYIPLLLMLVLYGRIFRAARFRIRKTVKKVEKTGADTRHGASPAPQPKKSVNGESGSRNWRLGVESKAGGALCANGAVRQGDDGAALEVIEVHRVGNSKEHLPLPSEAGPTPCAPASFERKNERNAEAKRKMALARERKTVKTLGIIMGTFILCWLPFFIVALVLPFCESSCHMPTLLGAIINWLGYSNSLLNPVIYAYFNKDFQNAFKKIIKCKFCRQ
Method: CHO-K1 cell line transfected with 5-HT1A receptor, were commercially obtained from Perkin Elmer (Cat. No. ES-310-C, Lot Number M2W-C1). Cells were cultured according to manufacturer’s instruction. […] Geneticin-resistant clones were obtained by limit dilution and compared for receptor expression levels using a radioligand binding assay. The clone with the highest receptor expression level was selected for characterization in binding and functional assays. […] Corresponding Protein Sequence: Identical to GenBank NP_000515.2. Receptor expression level (BMAX): Estimated to be 3.7 ± 2.3 pmol/mg protein, using [3H] […] This cell line tested negative for mycoplasma.

[4] = tested on: PDE4B; design: method as in PMID 27353547; conditions: in vitro, bioluminescent detection system; ref [8]; cited from earlier work
[5] = tested on: PDE10A; design: method as in PMID 27353547; conditions: in vitro, bioluminescent detection system; ref [8]; cited from earlier work
[6] = tested on: 5-HT1AR; design: method as in PMID 27353547; conditions: CHO-K1 cells, Ca2+ mobilisation; ref [8]; read-out: Kb, 5-HT1AR antagonist; cited from earlier work
[7] = Plasma glucose, triglyceride and cholesterol levels after repeated administration; assay type: in vivo, Swiss albino mice; conditions: mice, AZ-853 0.625, AZ-861 1.25 mg/kg b.w./day
Method: (§1) The Swiss albino mice were used in the experiment. AZ-853 and AZ-861 were injected once daily for 16 consecutive days. On the 1st and 15th day the administration of the compounds, 18-h spontaneous animal activity was registered (see below). FST, as described earlier, was performed on the 14th day just before the next treatment. To ensure that the effects observed in FST are not the result of increased motility of animals, on the 13th day, just before the next administration, the locomotor activity was measured as described earlier, from 2 to 6 min after test start, i.e. in the period identical to the duration of FST. Blood and organ collection was performed on the 17th day at 24 h after the last dose and fasting.
Blood samples were collected from the Swiss albino mice 24 h after the last administration of the tested compounds or vehicle. To determine glucose, cholesterol and triglyceride levels in the plasma, standard enzymatic spectrophotometric tests (Biomaxima S.A. Lublin, Poland) were used. In the presence of appropriate enzyme, the substrate was converted to a colored compound. Absorbance was measured at a wavelength of 500 nm. To determine alanine aminotransferase (ALAT) or γ-glutamyl transpeptidase (γ-GTP) activities in the plasma, the standard enzymatic spectrophotometric test (Biomaxima S.A.) was used. Absorbance was measured at 340 nm (ALAT) or 405 nm (γ-GTP).

[8] = molecular target: T2, human serotonin 5-HT1AR (Homo sapiens, UniProt P08908); assay: cAMP inhibition (LANCE Ultra cAMP, forskolin-stimulated CHO-K1 cells); conditions: for Emax: CHO-K1, read-out: Emax (%) ± SEM, agonist mode
T2 sequence (P08908 1-422): T1 sequence (P08908 1-422)
Method: CHO-K1 cell line transfected with 5-HT1A receptor, were commercially obtained from Perkin Elmer (Cat. No. ES-310-C, Lot Number M2W-C1). Cells were cultured according to manufacturer’s instruction.
The cells were cultured under selective conditions (400 μg/mL Geneticin G418). Thawed cells were resuspended in stimulation buffer (HBSS, 5 mM HEPES, 0.5 IBMX, and 0.1% BSA at pH 7.4) at 2 × 10^5 cells/mL. The same volume (10 μL) of cell suspension was added to tested compounds with 10 μM forskolin. Cell stimulation was performed for 40 min at room temperature. After incubation, cAMP measurements were performed with homogeneous TR-FRET immunoassay using the LANCE Ultra cAMP kit (PerkinElmer, USA) according to the manufacturer’s instruction (PerkinElmer). The TR-FRET signal was read on an EnVision microplate reader (PerkinElmer, USA).

[9] = tested on: mice; assay: Locomotor activity (Opto M3 activity monitor) in mice; assay type: in vivo, Swiss albino mice; conditions: for effect on spontaneous locomotor activity, acute administration: 4 min period identical to FST, AZ-853 0.625, 1.25, 2.5 mg/kg, AZ-861 1.25 mg/kg, WAY-100635 0.3 mg/kg alone or combined; for Number of movements (individual animals): raw data
Description: The investigated compounds AZ-853 (8-(4-(4-(2-fluorophenyl)piperazin-1-yl)butyl)-1,3-dimethyl-1H-imidazo[2,1-f]purine-2,4(3H,8H)-dione and AZ-861 (1,3-dimethyl-8-(4-(4-(3-(trifluoromethyl)phenyl)piperazin-1-yl)butyl)-1H-imidazo[2,1-f]purine-2,4(3H,8H)-dione) were synthesised in the Department of Medicinal Chemistry, Faculty of Pharmacy, Jagiellonian University, and their synthesis was described earlier. AZ-853 and AZ-861 were suspended in 1% aqueous solution of Tween 80, and WAY-100635 (Sigma, Germany) was dissolved in 0.9% saline. In acute experiments, the selected compounds AZ-853 (0.156–2.5 mg/kg) and AZ-861 (0.625–2.5 mg/kg) were injected i.p. once 60 min before tests, whereas WAY-100635 (0.3 mg/kg) was administered subcutaneously (s.c.) 45 min before the test. […] In chronic experiments, AZ-853 and AZ-861 were administered i.p. once a day (between 9:00 AM and 10:00 AM) for 16 consecutive days at the minimum active doses selected from FST experiment, i.e. 0.625 and 1.25 mg/kg, respectively. […]. The control groups received 1% aqueous solution of Tween 80.
Locomotor activity was recorded with an Opto M3 multi-channel activity monitor (MultiDevice Software v.1.3, Columbus Instruments). The Swiss albino mice were individually placed in plastic cages (220 × 120 × 130 mm) for 30 min habituation period, and then the crossings of each channel (ambulation) were counted from […] to 6 min, that is the time equal to the observation period in FST. The cages were cleaned up with 70% ethanol after each mouse.
as §1, with “[…].” for “On the 1st and 15th day the administration of the compounds, 18-h spontaneous animal activity was registered (see below).”

[10] = acute, 1.25 mg/kg i.p., measured from 3 to 6 min

## Cn1c(=O)c2c(nc3n(CCCCN4CCN(c5ccccc5F)CC4)ccn23)n(C)c1=O [AZ-853, 8-(4-(4-(2-fluorophenyl)piperazin-1-yl)butyl)-1,3-dimethyl-1H-imidazo[2,1-f]purine-2,4(3H,8H)-dione]
[1]
  mean reduction of blood pressure vs. methoxamine alone: 95.5 mmHg
[2]
  estimated log p: 5.34
[3]
  EC50: 6.61 nM
  Emax: 60 ± 2%
  decreased efficacy as compared to 5-HT: 1.6 fold
  increased potency as compared to 5-HT: 1.5 fold
[4]
  PDE4B inhibitory activity: did not induce PDE4B and PDE10A inhibitory activity
[5]
  PDE10A inhibitory activity: did not induce PDE4B and PDE10A inhibitory activity
[6]
  Kb: 2.7 nM
[7]
  plasma glucose level vs. control: did not influence the plasma glucose level
  plasma level of total cholesterol vs. control: increased significantly
  plasma level of triglycerides vs. control: increased significantly
[8]
  EC50: 15.8 nM
  Emax: 43 ± 0.5%
[8]; cAMP inhibition
  lower efficacy than 5-HT: 2.3 fold
  lower potency than 5-HT: 1.4 fold
[9]
  effect on spontaneous locomotor activity, acute administration: did not change the behavior of the animals
[9]; acute, 0.625 mg/kg i.p., measured from 3 to 6 min
  Number of movements (mean): 127.8
[9]; acute, 0.625 mg/kg, 3 to 6 min
  Number of movements (individual animals): 130 and 222 and 166 and 48 and 117 and 84
[9]; [10]
  Number of movements (mean): 149.8
[9]; acute, 1.25 mg/kg, 3 to 6 min
  Number of movements (individual animals): 200 and 171 and 90 and 115 and 119 and 204
[9]; acute, 2.5 mg/kg i.p., measured from 3 to 6 min
  Number of movements (mean): 156.8
[9]; acute, 2.5 mg/kg, 3 to 6 min
  Number of movements (individual animals): 116 and 258 and 120 and 200 and 205 and 42
[9]; repeated, 0.625 mg/kg, 24 h after 12th administration, during 4 min
  Number of movements (mean): 519.5
[9]; repeated, 0.625 mg/kg
  Number of movements (individual animals): 820 and 399 and 687 and 223 and 606 and 272 and 558 and 551 and 418 and 661

## Cn1c(=O)c2c(nc3n(CCCCN4CCN(c5cccc(C(F)(F)F)c5)CC4)ccn23)n(C)c1=O [AZ-861, 1,3-dimethyl-8-(4-(4-(3-(trifluoromethyl)phenyl)piperazin-1-yl)butyl)-1H-imidazo[2,1-f]purine-2,4(3H,8H)-dione]
[1]
  reversal of the effect of methoxamine: approximately 40%
  mean reduction of blood pressure vs. methoxamine alone: 40.45 mmHg
[2]
  estimated log p: 5.75
[3]
  EC50: 1.15 nM
  Emax: 76 ± 1.3%
  decreased efficacy as compared to 5-HT: 1.3 fold
  increased potency as compared to 5-HT: 9.1 fold
[4]
  PDE4B inhibitory activity: did not induce PDE4B and PDE10A inhibitory activity
[5]
  PDE10A inhibitory activity: did not induce PDE4B and PDE10A inhibitory activity
[6]
  Kb: 1.4 nM
[7]
  plasma glucose level vs. control: did not influence the plasma glucose level
  plasma level of total cholesterol vs. control: increased significantly
  plasma level of triglycerides vs. control: increased significantly
[8]
  EC50: 4.37 nM
  Emax: 76 ± 1.7%
[8]; cAMP inhibition
  higher potency than 5-HT: 2.6 fold
  lower efficacy than 5-HT: 1.3 fold
[9]
  effect on spontaneous locomotor activity, acute administration: did not change the behavior of the animals
[9]; [10]
  Number of movements (mean): 167.3
[9]; acute, 1.25 mg/kg, 3 to 6 min
  Number of movements (individual animals): 185 and 251 and 120 and 156 and 217 and 91 and 151
[9]; repeated, 1.25 mg/kg, 24 h after 12th administration, during 4 min
  Number of movements (mean): 513.9
[9]; repeated, 1.25 mg/kg
  Number of movements (individual animals): 418 and 521 and 595 and 467 and 633 and 454 and 778 and 245
